Assay results published in US20090099169A1, “Benzofuran Compounds As EP1 Receptor Antagonists” (GLAXO GROUP LIMITED, priority 2006, published 2009).
Counter-ions that a name gives are not always drawn.

Tests used:
human TP receptor = biological target: T1, human TP receptor (Homo sapiens, UniProt P21731); test: human TP calcium mobilisation assay; format: cell-based; conditions: CHO-K1 cells, antagonism of U46619; averages of a number of experiments; read-out: functional pKi value (human TP calcium mobilisation assay) (converted)
T1 construct: expressed in transfected cells; host or cells: CHO-K1
T1 sequence (P21731 1-343): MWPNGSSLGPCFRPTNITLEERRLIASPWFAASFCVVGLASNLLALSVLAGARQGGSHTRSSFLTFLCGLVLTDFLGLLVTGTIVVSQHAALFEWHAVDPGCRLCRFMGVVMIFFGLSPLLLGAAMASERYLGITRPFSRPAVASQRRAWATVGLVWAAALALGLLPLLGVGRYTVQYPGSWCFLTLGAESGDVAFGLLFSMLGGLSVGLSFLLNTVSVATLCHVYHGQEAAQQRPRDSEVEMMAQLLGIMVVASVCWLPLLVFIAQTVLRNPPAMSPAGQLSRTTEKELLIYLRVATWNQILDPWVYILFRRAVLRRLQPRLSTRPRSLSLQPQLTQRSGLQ
Method: To determine if a compound has agonist or antagonist activity at the TP receptor a functional calcium mobilisation assay may be performed. Briefly, the antagonist properties of compounds are assessed by their ability to inhibit the mobilisation of intracellular calcium ([Ca^2+]i) in response to activation of TP receptors by the stable TXA2 mimetic U46619 (9,11-dideoxy-11α,9α-epoxy-methanoprostaglandin F2α; commercially available from e.g Sigma-Aldrich). Increasing concentrations of antagonist reduce the amount of calcium that a given concentration of U46619 can mobilise. The net effect is to displace the U46619 concentration-effect curve. The amount of calcium produced is assessed using a calcium-sensitive fluorescent dye such as Fluo-4, AM and a suitable instrument such as a Fluorimetric Imaging Plate Reader (FLIPR). Increasing amounts of [Ca^2+]i produced by receptor activation increase the amount of fluorescence produced by the dye and give rise to an increasing signal. The signal may be detected using the FLIPR instrument and the data generated may be analysed with suitable curve-fitting software. The agonist activity of the compounds are determined by their ability to cause an increase in intracellular mobilisation in the absence of U46619.
(§1) The human TP calcium mobilisation assay utilises Chinese hamster ovary-K1 (CHO-K1) cells into which a stable (pCIN; BioTechniques 20 (1996): 102-110) vector containing TP cDNA has previously been transfected. Cells are cultured in suitable flasks containing culture medium such as DMEM:F-12 supplemented with 10% v/v foetal calf serum, 2 mM L-glutamine, 0.25 mg/ml geneticin, 100 μM flurbiprofen and 10 μg/ml puromycin.
(§2) For assay, cells are harvested using a proprietary reagent that dislodges cells such as Versene. Cells are re-suspended in a suitable quantity of fresh culture media for introduction into a 96-well plate. Following incubation for 24 hours at 37° C. the culture media is replaced with a medium containing Fluo-4 and the detergent pluronic acid, and a further incubation takes place. Concentrations of compounds are then added to the plate in order to construct concentration-effect curves. This may be performed on the FLIPR in order to assess the agonist properties of the compounds. Concentrations of U46619 are then added to the plate in order to assess the antagonist properties of the compounds.
The data so generated may be analysed by means of a computerised curve-fitting routine. The concentration of compound that elicits a half-maximal inhibition of the calcium mobilisation induced by U46619 (pIC50) may then be estimated, and the percentage activation caused by the compounds directly can be used to determine if there is any agonism present.

human EP3 receptor = biological target: T2, human EP3 receptor (Homo sapiens, UniProt P43115); test: human EP3 calcium mobilisation assay; format: cell-based; conditions: CHO-K1 cells, antagonism of PGE2; averages of a number of experiments; read-out: functional pKi value (human EP3 calcium mobilisation assay) (converted)
T2 construct: expressed in transfected cells; host or cells: CHO-K1
T2 sequence (P43115 1-390): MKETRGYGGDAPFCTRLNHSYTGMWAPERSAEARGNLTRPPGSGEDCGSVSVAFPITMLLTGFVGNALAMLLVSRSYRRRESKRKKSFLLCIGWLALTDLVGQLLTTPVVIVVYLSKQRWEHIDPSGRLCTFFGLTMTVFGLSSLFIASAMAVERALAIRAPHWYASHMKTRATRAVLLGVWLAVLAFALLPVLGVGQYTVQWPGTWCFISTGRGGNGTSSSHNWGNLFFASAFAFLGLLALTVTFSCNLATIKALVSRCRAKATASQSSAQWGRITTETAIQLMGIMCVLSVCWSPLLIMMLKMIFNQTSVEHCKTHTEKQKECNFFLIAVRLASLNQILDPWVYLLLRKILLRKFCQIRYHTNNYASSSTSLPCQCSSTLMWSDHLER
Method: Briefly, the antagonist properties of compounds are assessed by their ability to inhibit the mobilisation of intracellular calcium ([Ca^2+]i) in response to activation of EP1 or EP3 receptors by the natural agonist hormone prostaglandin E2 (PGE2). Increasing concentrations of antagonist reduce the amount of calcium that a given concentration of PGE2 can mobilise. The net effect is to displace the PGE2 concentration-effect curve to higher concentrations of PGE2. The amount of calcium produced is assessed using a calcium-sensitive fluorescent dye such as Fluo-4, AM and a suitable instrument such as a Fluorimetric Imaging Plate Reader (FLIPR). Increasing amounts of [Ca^2+]i produced by receptor activation increase the amount of fluorescence produced by the dye and give rise to an increasing signal. The signal may be detected using the FLIPR instrument and the data generated may be analysed with suitable curve-fitting software.
as §1, with “human EP1 or EP3” for “human TP”, “assay (hereafter referred to as ‘the calcium assay’)” for “assay”, “stable (PCIN;” for “stable (pCIN;”, “containing either EP1 or EP3” for “containing TP”
as §2, with “384-well” for “96-well”, “PGE2” for “U46619”
The data so generated may be analysed by means of a computerised curve-fitting routine. The concentration of compound that elicits a half-maximal inhibition of the calcium mobilisation induced by PGE2 (pIC50) may then be estimated.

Ki (human TP receptor) [µM] | Ki (human EP3 receptor) [µM] | Compound
< 0.0316 | 0.501 to 10 | CC(C)c1cc2cc(Cl)cc(Cc3ccc(C(=O)O)o3)c2o1 [Example 1, 5-{[5-Chloro-2-(1-methylethyl)-1-benzofuran-7-yl]methyl}-2-furancarboxylic Acid]
> 3.16 | – | Cc1cc(C(=O)NN2CCOCC2)nn1Cc1cc(Cl)cc2cc(C3CCCCC3)oc12 [Example 28, 1-[(5-Chloro-2-cyclohexyl-1-benzofuran-7-yl)methyl]-5-methyl-N-4-morpholinyl-1H-pyrazole-3-carboxamide]
> 3.16 | – | Cc1cc(C(=O)Nc2ccc(CN3CC[C@@H](O)C3)cc2)nn1Cc1cc(Cl)cc2cc(C(C)C)oc12 [Example 17, 1-{[5-Chloro-2-(1-methylethyl)-1-benzofuran-7-yl]methyl}-N-(4-{[(3R)-3-hydroxy-1-pyrrolidinyl]methyl}phenyl)-5-methyl-1H-pyrazole-3-carboxamide hydrochloride]

Further lines, the compound ahead of its results:

Compound | Ki (human TP receptor) [µM] | Ki (human EP3 receptor) [µM]
Cc1cc(C(=O)Nc2ccc(CN3CCC(O)CC3)cc2)nn1Cc1cc(Cl)cc2cc(C(C)C)oc12 [Example 16, 1-{[5-Chloro-2-(1-methylethyl)-1-benzofuran-7-yl]methyl}-N-{4-[(4-hydroxy-1-piperidinyl)methyl]phenyl}-5-methyl-1H-pyrazole-3-carboxamide hydrochloride] | > 3.16 | –
CCNCc1ccc(NC(=O)c2cc(C)n(Cc3cc(Cl)cc4cc(C(C)C)oc34)n2)cc1 [Example 15, 1-{[5-Chloro-2-(1-methylethyl)-1-benzofuran-7-yl]methyl}-N-{4-[(ethylamino)methyl]phenyl}-5-methyl-1H-pyrazole-3-carboxamide hydrochloride] | > 3.16 | –
Cc1cc(C(=O)O)nn1Cc1cc(Cl)cc2cc(C(C)C)oc12 [Example 3, 1-{[5-Chloro-2-(1-methylethyl)-1-benzofuran-7-yl]methyl}-5-methyl-1H-pyrazole-3-carboxylic Acid] | < 3.16 | 0.501 to 10
